Assay results: the supplement of paper PMC10307832

Columns and labels:
Experiment in all cases: relative viability (nuclei count vs DMSO), 5 days (fraction); higher = more cells survive
NCI-H322M = system: NCI-H322M
Method in brief: (§1)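 Lung cancer cell lines in 1536-well plates got either a single drug or a fixed anchor-drug dose together with five library-drug doses (not always all listed) in √10 steps, by pin tool, on the day after seeding. Nuclei were counted after 5 days, and relative viability is the treated-to-vehicle ratio of nuclei counts. Values are medians of duplicate plates.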

NCI-H2170 = system: NCI-H2170
Method in brief: as §1

NCI-H23 = system: NCI-H23
Method in brief: as §1

HCC-44 = system: HCC-44
Method in brief: as §1

NCI-H2347 = system: NCI-H2347
Method in brief: as §1

NCI-H838 = system: NCI-H838
Method in brief: as §1

NCI-H1666 = system: NCI-H1666
Method in brief: as §1

NCI-H1395 = system: NCI-H1395
Method in brief: as §1

201T = system: 201T
Method in brief: as §1

NCI-H2085 = system: NCI-H2085
Method in brief: as §1

NCI-H661 = system: NCI-H661
Method in brief: as §1

HOP-62 = system: HOP-62
Method in brief: as §1

NCI-H1651 = system: NCI-H1651
Method in brief: as §1

NCI-H520 = system: NCI-H520
Method in brief: as §1

NCI-H1355 = system: NCI-H1355
Method in brief: as §1

NCI-H2228 = system: NCI-H2228
Method in brief: as §1

NCI-H647 = system: NCI-H647
Method in brief: as §1

CAL-12T = system: CAL-12T
Method in brief: as §1

LCLC-103H = system: LCLC-103H
Method in brief: as §1

NCI-H1993 = system: NCI-H1993
Method in brief: as §1

COR-L23 = system: COR-L23
Method in brief: as §1

LC-2-ad = system: LC-2-ad
Method in brief: as §1

## O=C(O)CCCCC(CCSCc1ccccc1)SCc1ccccc1 (stereo not given) [CPI-613] + Nc1nc2[nH]cc(CCc3ccc(C(=O)N[C@@H](CCC(=O)O)C(=O)O)cc3)c2c(=O)[nH]1 [Pemetrexed] (partner 0.2 µM)
NCI-H322M; first compound 5 µM
  relative viability: 0.617
NCI-H322M; first compound 15.81 µM
  relative viability: 0.58
NCI-H322M; first compound 50 µM
  relative viability: 0.616
NCI-H322M; first compound 158.11 µM
  relative viability: 0.637
NCI-H322M; first compound 500 µM
  relative viability: 0.441
NCI-H2170; first compound 5 µM
  relative viability: 0.278
NCI-H2170; first compound 15.81 µM
  relative viability: 0.251
NCI-H2170; first compound 50 µM
  relative viability: 0.244
NCI-H2170; first compound 158.11 µM
  relative viability: 0.26
NCI-H2170; first compound 500 µM
  relative viability: 0.227
NCI-H23; first compound 5 µM
  relative viability: 0.673
NCI-H23; first compound 15.81 µM
  relative viability: 0.621
NCI-H23; first compound 50 µM
  relative viability: 0.544
NCI-H23; first compound 158.11 µM
  relative viability: 0.19
NCI-H23; first compound 500 µM
  relative viability: 0.0031
HCC-44; first compound 5 µM
  relative viability: 0.635
HCC-44; first compound 15.81 µM
  relative viability: 0.61
HCC-44; first compound 50 µM
  relative viability: 0.592
HCC-44; first compound 158.11 µM
  relative viability: 0.622
HCC-44; first compound 500 µM
  relative viability: 0.53
NCI-H2347; first compound 5 µM
  relative viability: 0.413
NCI-H2347; first compound 15.81 µM
  relative viability: 0.434
NCI-H2347; first compound 50 µM
  relative viability: 0.405
NCI-H2347; first compound 158.11 µM
  relative viability: 0.383
NCI-H2347; first compound 500 µM
  relative viability: 0.419
NCI-H838; first compound 5 µM
  relative viability: 0.232
NCI-H838; first compound 15.81 µM
  relative viability: 0.229
NCI-H838; first compound 50 µM
  relative viability: 0.215
NCI-H838; first compound 158.11 µM
  relative viability: 0.149
NCI-H838; first compound 500 µM
  relative viability: 0.0989
NCI-H1666; first compound 5 µM
  relative viability: 0.892
NCI-H1666; first compound 15.81 µM
  relative viability: 0.857
NCI-H1666; first compound 50 µM
  relative viability: 0.835
NCI-H1666; first compound 158.11 µM
  relative viability: 0.489
NCI-H1666; first compound 500 µM
  relative viability: 0.471
NCI-H1395; first compound 5 µM
  relative viability: 0.942
NCI-H1395; first compound 15.81 µM
  relative viability: 0.671
NCI-H1395; first compound 50 µM
  relative viability: 0.868
NCI-H1395; first compound 158.11 µM
  relative viability: 0.723
NCI-H1395; first compound 500 µM
  relative viability: 0.598
201T; first compound 5 µM
  relative viability: 0.268
201T; first compound 15.81 µM
  relative viability: 0.341
201T; first compound 50 µM
  relative viability: 0.327
201T; first compound 158.11 µM
  relative viability: 0.24
201T; first compound 500 µM
  relative viability: 0.179
NCI-H2085; first compound 5 µM
  relative viability: 0.827
NCI-H2085; first compound 15.81 µM
  relative viability: 0.672
NCI-H2085; first compound 50 µM
  relative viability: 0.82
NCI-H2085; first compound 158.11 µM
  relative viability: 0.492
NCI-H2085; first compound 500 µM
  relative viability: 0.18
NCI-H661; first compound 5 µM
  relative viability: 0.887
NCI-H661; first compound 15.81 µM
  relative viability: 0.921
NCI-H661; first compound 50 µM
  relative viability: 0.863
NCI-H661; first compound 158.11 µM
  relative viability: 0.557
NCI-H661; first compound 500 µM
  relative viability: 0.131
HOP-62; first compound 5 µM
  relative viability: 0.321
HOP-62; first compound 15.81 µM
  relative viability: 0.309
HOP-62; first compound 50 µM
  relative viability: 0.272
HOP-62; first compound 158.11 µM
  relative viability: 0.163
HOP-62; first compound 500 µM
  relative viability: 0.12
NCI-H1651; first compound 5 µM
  relative viability: 0.591
NCI-H1651; first compound 15.81 µM
  relative viability: 0.588
NCI-H1651; first compound 50 µM
  relative viability: 0.579
NCI-H1651; first compound 158.11 µM
  relative viability: 0.519
NCI-H1651; first compound 500 µM
  relative viability: 0.579
NCI-H520; first compound 5 µM
  relative viability: 0.708
NCI-H520; first compound 15.81 µM
  relative viability: 0.627
NCI-H520; first compound 50 µM
  relative viability: 0.527
NCI-H520; first compound 158.11 µM
  relative viability: 0.232
NCI-H520; first compound 500 µM
  relative viability: 0.155
NCI-H1355; first compound 5 µM
  relative viability: 1.02
NCI-H1355; first compound 15.81 µM
  relative viability: 0.983
NCI-H1355; first compound 50 µM
  relative viability: 1.06
NCI-H1355; first compound 158.11 µM
  relative viability: 0.754
NCI-H1355; first compound 500 µM
  relative viability: 0.457
NCI-H2228; first compound 5 µM
  relative viability: 0.362
NCI-H2228; first compound 15.81 µM
  relative viability: 0.33
NCI-H2228; first compound 50 µM
  relative viability: 0.324
NCI-H2228; first compound 158.11 µM
  relative viability: 0.272
NCI-H2228; first compound 500 µM
  relative viability: 0.059
NCI-H647; first compound 5 µM
  relative viability: 0.157
NCI-H647; first compound 15.81 µM
  relative viability: 0.158
NCI-H647; first compound 50 µM
  relative viability: 0.113
NCI-H647; first compound 158.11 µM
  relative viability: 0.0906
NCI-H647; first compound 500 µM
  relative viability: 0.0167
CAL-12T; first compound 5 µM
  relative viability: 1.02
CAL-12T; first compound 15.81 µM
  relative viability: 1.03
CAL-12T; first compound 50 µM
  relative viability: 1.02
CAL-12T; first compound 158.11 µM
  relative viability: 0.0985
CAL-12T; first compound 500 µM
  relative viability: 0.0501
LCLC-103H; first compound 5 µM
  relative viability: 0.514
LCLC-103H; first compound 15.81 µM
  relative viability: 0.462
LCLC-103H; first compound 50 µM
  relative viability: 0.414
LCLC-103H; first compound 158.11 µM
  relative viability: 0.452
LCLC-103H; first compound 500 µM
  relative viability: 0.272
NCI-H1993; first compound 5 µM
  relative viability: 0.601
NCI-H1993; first compound 15.81 µM
  relative viability: 0.522
NCI-H1993; first compound 50 µM
  relative viability: 0.537
NCI-H1993; first compound 158.11 µM
  relative viability: 0.378
NCI-H1993; first compound 500 µM
  relative viability: 0.278
COR-L23; first compound 5 µM
  relative viability: 0.216
COR-L23; first compound 15.81 µM
  relative viability: 0.197
COR-L23; first compound 50 µM
  relative viability: 0.192
COR-L23; first compound 158.11 µM
  relative viability: 0.2
COR-L23; first compound 500 µM
  relative viability: 0.013
LC-2-ad; first compound 5 µM
  relative viability: 0.256
LC-2-ad; first compound 15.81 µM
  relative viability: 0.275
LC-2-ad; first compound 50 µM
  relative viability: 0.254
LC-2-ad; first compound 158.11 µM
  relative viability: 0.116
LC-2-ad; first compound 500 µM
  relative viability: 0.0144
